These results are taken from US11084847B2, “Polyamide compound and use thereof” (SICHUAN KELUN-BIOTECH BIOPHARMACEUTICAL CO., LTD., priority 2016, dated 2021).

Each structure is given as a SMILES string. pEC50, pIC50, pKi: −log10 of the molar value. Read-outs that look alike come from different tables or passages of the source. Some results are limits rather than exact numbers.

The target in one data set is MOR (Homo sapiens, UniProt P35372). Nature of the data set: Opioid receptor selectivity, radioligand competition binding (3H-DAMGO) on cell membranes. As to the method: (§1) The selectivity of the compounds of the invention for κ opioid receptors was determined by measuring the inhibitory effect of the compounds of Examples on the […] of KOR, MOR, and DOR.
(§2) The compounds of Examples at different concentrations were incubated with the cell membrane with high expression of KOR, MOR, DOR and the corresponding radioligand (KOR: 3H-diprenophrine; MOR: 3H-DAMGO; DOR: 3H-DADLE) for 1 h, the compounds of Examples competed with the radioligands for binding to KOR, MOR, DOR. After the incubation, Cell harvest was used to collect cell membranes onto a Unifilter-96 GF/C filter plate, and the unbound radioligands were washed away. The plate was placed in a 50-degree oven for 1 h, and finally the scintillation solution Microscint 20 cocktail was added and the isotope signal was detected by MicroBeta2 Reader.
(§3) According to the intensity of the isotope signal at different concentrations, the IC50 was calculated by means of fitting with a four-parameter equation, and the Ki value was calculated.
(§4) The Ki value was calculated according to the formula Ki=IC50/(1+[radioligand]/Kd), and Kd was the equilibrium dissociation constant of radioligand.

In the next data set the target is DOR (Homo sapiens, UniProt P41143). Nature of the data set: Opioid receptor selectivity, radioligand competition binding (3H-DADLE) on cell membranes. As to the method:
as §1, §2, §3, §4

Data set [1] is described as follows: Ability of compounds to pass through the blood-brain barrier (plasma and brain tissue concentration). The class given is in vivo. To be noted: rat, male rats, iv 1 mg/kg; for concentration at 5 min: 5 min after administration; for concentration at 15 min: 15 min after administration; for concentration at 30 min: 30 min after administration; for concentration at 60 min: 60 min after administration. Here is the method:
After peripheral intravenous administration of the compound of each Example to the animal, samples of peripheral plasma and brain tissue were taken to determine the concentration of the compound in the peripheral plasma and brain tissue.
After intravenously injected with the compound of Example 5 at 1 mg/kg to male rats, samples of plasma and brain tissues were taken at various time points, and the contents of the test compound in the peripheral plasma and brain tissue were determined.

Data set [2] in a line: Pharmacokinetic (PK) study in rats. The class given is in vivo. To be noted: male SD rats, intravenous, 1 mg/kg; for AUC(0-t) / Cmax / Vd / half-life: rat, plasma. As to the method: The pharmacokinetic profile of the compounds of Examples was studied by intravenous administration of the compounds of Examples to male SD rats. The dose for IV administration was 1 mg/kg, and the solvent was 5% DMSO: 5% solutol: 90% physiological saline. After IV administration, blood samples were collected at different time points for PK study. Plasma were treated by protein precipitation and then analyzed by LC-MS/MS.
In LC-MS/MS, mass spectrum was API 5500, and liquid chromatography was Shimadzu LC-30AD system. The column used for the test groups of Compound 3 and Compound 4 was Thermo C18 column (4.6 mm×100 mm, 3 μm); for mobile phases, phase A was water+0.1% formic acid, and phase B was methanol; the flow rate was 0.8 mL/min, and the column temperature was 40° C. The column used for the test group of Compound 5 was Agela AQ C18 column (2.1 mm×50 mm, 1.9 μm); for mobile phases, phase A was water+0.05% formic acid+5 mM acetic acid ammonium, and phase B was methanol+0.05% formic acid; the flow rate was 0.6 mL/min, and the column temperature was 40° C. The ion source used was the ESI source in positive ion mode, and the scanning mode was Multiple Reaction Monitoring (MRM).

Data set [3] concerns the target T1, human κ-opioid receptor (KOR) (Homo sapiens, UniProt P41145).
T1 construct: expressed in transfected cells
The experiment in a line: κ-opioid receptor agonistic effect (inhibition of adenylate cyclase, cAMP assay). The class given is cell-based. As to the method: The efficacy of the compounds of the invention as κ-opioid receptor agonists was determined by measuring the ability of the compounds of Examples to inhibit adenylate cyclase activity.
Cell culture: hamster ovary cells CHO stably expressing human κ-opioid receptor (KOR) gene were cultured in MEMα plus nucleosides medium (Invitrogen) containing 5% FBS.
Stimulation: the test compound was 4-fold diluted in a gradient manner to obtain 11 concentrations, and 100 nl of each was transferred to a 384-well plate, and then a stimulating solution (5 uL) containing NKH477 (Tocris) was added; the cells were digested, re-suspended, and counted; and then the cells (5 uL) were added to wells, mixed gently, and incubated at 37° C. for 30 min.
Detection: cAMP Assay Kit (Cisbio) was used, cAMP-D2 and Anti-cAMP-Cryptate were added separately, and the resultant mixture was incubated for 1 h at room temperature. The plate was read using envision (Perkin Elmer) and EC50 was obtained by means of fitting with a four-parameter equation.

A further data set has as its target KOR (Homo sapiens, UniProt P41145). The experiment in a line: Opioid receptor selectivity, radioligand competition binding (3H-diprenophrine) on cell membranes. To be noted: for KOR selectivity (in words): KOR versus MOR and DOR binding. As to the method:
as §1, §2, §3, §4

The subject of a further data set is male ICR mice. Nature of the data set: Acetic acid-induced writhing test in mice. The data set is classed as in vivo. Also noted: ED50: unit not given here. To be noted: for analgesic effect (in words): acetic acid-induced writhing, mice, iv; for ED50: iv administration 15 min before 0.6% acetic acid ip, writhes counted within 15 min. Here is the method:
The analgesic effect of the compound of the invention was evaluated by measuring the ED50 of the compounds of Examples in the acetic acid-induced writhing test in mice.
The commercial glacial acetic acid solution was diluted with physiological saline to 0.6% glacial acetic acid solution. The male ICR mice were randomly separated into the drug group and the model group (to which physiological saline was administration). 15 minutes after iv administration, 0.6% acetic acid solution was intraperitoneally injected at 10 ml/kg, and the mice was immediately recorded with DV camera for 15 min. After the recording, the number of writhes of the mice within 15 min was counted from the video by blind method, the inhibition rate for the writhes was calculated according to Formula (I), and the ED50 of the compound was calculated according to Formula (II).
(I) The inhibition rate for the writhes was calculated by the formula: Inhibition rate (%)=(the number of writhes in a model group−the number of writhes in a drug group)/the number of writhes in a model group*100.
(II) The ED50 was calculated by the formula:
[formula] wherein Xm was the logarithm of the highest dose, d was the difference in the logarithm of two adjacent doses, p was the inhibition rate for each dose group, pm was the highest-dose inhibition rate, and pn was the lowest-dose inhibition rate.

Setting [4] is: brain, read-out: Concentration in brain tissue.
The mark [5] stands for this setting: plasma, read-out: Concentration in peripheral plasma.

As for `COCCOCCNCCCC[C@@H](NC(=O)[C@@H](CC(C)C)NC(=O)[C@@H](Cc1ccccc1)NC(=O)[C@H](N)Cc1ccccc1)C(=O)N1CCC(N)(C(=O)O)CC1` [Example 5, 4-amino-1-((R)-2-((R)-2-((R)-2-((R)-2-amino-3-phenylpropanamido)-3-phenylpropanamido)-4-methylpentanamido)-6-((2-(2-methoxyethoxy)ethyl)amino)hexanoyl)piperidin-4-carboxylic acid], the negative-log Ki (pKi) on MOR (Ki=IC50/(1+[radioligand]/Kd), read-out: MOR Ki) is under 5.14. For the same compound, on MOR (radioligand 3H-DAMGO, 1 h incubation, read-out: MOR IC50), the pIC50 is under 4.70. For the same compound, the pKi at DOR (Ki=IC50/(1+[radioligand]/Kd), read-out: DOR Ki) was under 4.92. Also, the pIC50 at DOR (radioligand 3H-DADLE, 1 h incubation, read-out: DOR IC50) is under 4.70. Moreover, in data set [1] (setting [4]), the concentration at 5 min stood at 0 µg/mL, the concentration at 15 min amounted to 0 µg/mL, the concentration at 30 min is 0.0002 µg/mL and the concentration at 60 min came to 0 µg/mL. In data set [1] (setting [5]), the concentration at 5 min was found to be 1.31 µg/mL, the concentration at 15 min was determined as 0.716 µg/mL, the concentration at 30 min is 0.386 µg/mL and the concentration at 60 min is 0.136 µg/mL. Moreover, in data set [2], the “pharmacokinetic profile (in words)” value is “good exposure amount and Cmax”; the AUC(0-t) was 0.783 µg·h/mL; the Cmax was found to be 1.69 µg/mL; the Vd turned out to be 0.53 L/kg. For the same compound, in data set [2], the half-life is 16.8 min. In data set [3] (CHO cells stably expressing human KOR, NKH477-stimulated cAMP, four-parameter fit, read-out: ED50 (the source's name)), the pEC50 was 10.30. Besides, the “KOR selectivity (in words)” value at KOR is on record as “excellent KOR selectivity”. The pKi on KOR (Ki=IC50/(1+[radioligand]/Kd), read-out: KOR Ki) was 10.70. Further, the pIC50 on KOR (radioligand 3H-diprenophrine, 1 h incubation, read-out: KOR IC50) is 10.30. In addition, in the data set with male ICR mice, the “analgesic effect (in words)” value is listed as “significant analgesic effect” and the ED50 is 0.017.
At MOR, `COCCOCCOCCOCCOCCOCCOCCNCCCC[C@@H](NC(=O)[C@@H](CC(C)C)NC(=O)[C@@H](Cc1ccccc1)NC(=O)[C@H](N)Cc1ccccc1)C(=O)N1CCC(N)(C(=O)O)CC1` [Example 6, 4-amino-1-((R)-28-((R)-2-((R)-2-((R)-2-amino-3-phenylpropanamido)-3-phenylpropanamido)-4-methylpentanamido)-2,5,8,11,14,17,20-heptaoxa-23-azanonacosan-29-oyl)piperidin-4-carboxylic acid] had a pIC50 of under 4.70 and a pKi of under 5.14. Further, at DOR, the pIC50 was under 4.70 and the negative logarithm of the Ki (pKi) was under 4.92. Moreover, in data set [2], the “pharmacokinetic profile (in words)” value is “good exposure amount and Cmax”; the AUC(0-t) is 2.18 µg·h/mL; the Cmax amounted to 3.66 µg/mL; the Vd was 0.2 L/kg. Also, the half-life in data set [2] is 17.4 min. Moreover, the pEC50 in data set [3] is 9.96. On KOR, the pIC50 was 9.48, the negative-log Ki (pKi) was 9.96 and the “KOR selectivity (in words)” value is listed as “excellent KOR selectivity”. Further, in the data set with male ICR mice, the “analgesic effect (in words)” value was “significant analgesic effect” and the ED50 came to 0.036.
